Source: patent US20230295201A1 (Gilead Sciences, Inc., priority 2020, published 2023)
Where two headings read alike, the source gives them in different places.

How the values were obtained:
Format in all cases: cell-based
[1] = test system: Dengue serotype 2 New Guinea C (NGC) strain; test: DENV-2 Huh-7 EC50 (qPCR in Huh7 cells)
Procedure, shortened: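 Huh7 cells infected 2 h at 37 °C with DENV-2 NGC at MOI 0.1, then plated with graded compound doses (0.25% DMSO) in triplicate. After 48 h, viral RNA quantified by duplex TaqMan RT-qPCR against GAPDH; EC50 normalized to positive control and no-compound wells.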

HCV replicon 1B = test: HCV Rep 1B EC50 (replicon luciferase)
Protocol: (§1) Compounds were serially diluted in ten steps of 1:3 dilutions in 384-well plates. All serial dilutions were performed in four replicates per compound within the same 384-well plate. […] To each well of a black polystyrene 384-well plate (Greiner Bio-one, Monroe, NC), 90 μL of cell culture medium (without Geneticin) containing 2000 suspended HCV replicon cells was added with a Biotek μFlow workstation. For compound transfer into cell culture plates, 0.4 μL of compound solution from the compound serial dilution plate was transferred to the cell culture plate on a Biomek FX workstation. The DMSO concentration in the final assay wells was 0.44%. The plates were incubated for 3 days at 37° C. with 5% CO2 and 85% humidity. The HCV replicon assay was a multiplex assay, able to assess both cytotoxicity and antireplicon activity from the same well. The CC50 assay was performed first. The media in the 384-well cell culture plate was aspirated, and the wells were washed four times with 100 μL of PBS each, using a Biotek ELX405 plate washer. A volume of 50 μL of a solution containing 400 nM calcein AM (Anaspec, Fremont, CA) in 1×PBS was added to each well of the plate with a Biotek μFlow workstation. The plate was incubated for 30 min at room temperature before the fluorescence signal (excitation 490 nm, emission 520 nm) was measured with a Perkin-Elmer Envision plate reader. The EC50 assay was performed in the same wells as the CC50 assay. The calcein-PBS solution in the 384-well cell culture plate was aspirated with a Biotek ELX405 plate washer. A volume of 20 μL of Dual-Glo luciferase buffer (Promega, Madison, WI) was added to each well of the plate with a Biotek μFlow Workstation. The plate was incubated for 10 min at room temperature. A volume of 20 μL of a solution containing a 1:100 mixture of Dual-Glo Stop & Glo substrate (Promega, Madison, WI) and Dual-Glo Stop & Glo buffer (Promega, Madison, WI) was added to each well of the plate with a Biotek μFlow Workstation. The plate was then incubated at room temperature for 10 min before the luminescence signal was measured with a Perkin-Elmer Envision Plate Reader.

HCV replicon 2A = test: HCV Rep 2A EC50 (replicon luciferase)
Protocol: as §1

[2] = test system: Dengue 2, New Guinea strain (NGC); test: DENV-2 moDC EC50 (qPCR in human monocyte-derived dendritic cells); settings: moDCs
Protocol: Human monocyte-derived dendritic cells (moDCs) were derived from CD14+ monocytes (AllCells) cultured in Human Mo-DC Differentiation medium containing GM-CSF and IL-4 (Miltenyi Biotec). On day 7, moDCs were harvested by mechanical disruption, washed and suspended in serum-free RPMI. moDCs were infected with Vero-derived Dengue 2, New Guinea strain (NGC) at a MOI=0.1 for two hours in serum-free RPMI with gentle agitation at 37° C. Cells were washed and resuspended in 10% serum-containing RPMI (Gibco, supplemented with sodium pyruvate, NEAA, Penicillin-Streptomycin). 10^5 cells were plated in triplicate in 96-well plates with compounds dispensed at graded doses (Hewlett-Packard D300 Digital Dispenser). All wells were normalized to 0.25% DMSO. At 48 hours, cells were washed with 1×PBS and all supernatants removed. Total RNA was extracted using RNEasy 96 plates (Qiagen) and used to generate first-strand cDNA using XLT cDNA 5× Supermix (QuantaBio). cDNA was used as a template in a Taqman qPCR duplex reaction specific to DENV2 viral and GAPDH gene expression. EC50 values were determined using Prism Graphpad software, with normalization to a positive control and no compound negative control wells.

[3] = Dengue virus, DENV2, Huh-7, 48 h
[4] = Hepatitis C virus, 72 h, read-out: HCV Rep 1B EC50, replicon cells, 3 days
[5] = Hepatitis C virus, 72 h, read-out: HCV Rep 2A EC50, replicon cells, 3 days
[6] = Dengue virus, DENV2, Dendritic cell, 48 h
[7] = read-out: HCV Rep 1B EC50, replicon cells, 3 days
[8] = read-out: HCV Rep 2A EC50, replicon cells, 3 days

| Compound | EC50 [1, 3] | EC50 (HCV replicon 1B; [4]) | EC50 (HCV replicon 2A; [5]) | EC50 [2, 6] | other results |
| --- | --- | --- | --- | --- | --- |
| CCCCCCCCCCCC(=O)OCCNP(=O)(OC[C@@]1(C#N)O[C@@H](c2ccc3c(N)ncnn23)[C@H](O)[C@@H]1O)Oc1ccccc1 (mixture of isomers) [Example 181, 2-(((((2R,3S,4R,5S)-5-(4-aminopyrrolo[2,1-f][1,2,4]triazin-7-yl)-2-cyano-3,4-dihydroxytetrahydrofuran-2-yl)methoxy)(phenoxy)phosphoryl)amino)ethyl dodecanoate] | 795 nM | 861 nM | 1680 nM | – | – |
| C[C@H](N[P@](=O)(OC[C@@]1(C#N)O[C@@H](c2ccc3c(N)ncnn23)[C@H](O)[C@@H]1O)Oc1ccccc1)C(=O)OC1CCCCC1 (single isomer, unassigned) [Example 6] | 1630 nM | 793 nM | 1270 nM | > 6190 nM | – |
| C[C@H](N[P@](=O)(OC[C@@]1(C#N)O[C@@H](c2ccc3c(N)ncnn23)[C@H](O)[C@@H]1O)Oc1ccccc1)C(=O)O[C@H]1CC[C@H](C(F)(F)F)CC1 (single isomer, unassigned) [Example 18] | – | 1110 nM | 1480 nM | – | – |
| C[C@H](N[P@](=O)(OC[C@@]1(C#N)O[C@@H](c2ccc3c(N)ncnn23)[C@H](O)[C@@H]1O)Oc1ccccc1)C(=O)O[C@H]1CC[C@H](C(C)(C)C)CC1 (single isomer, unassigned) [Example 22] | 665 nM | – | – | – | – |
| CCC(CC)COC(=O)[C@H](C)N[P@](=O)(OC[C@@]1(C#N)O[C@@H](c2ccc3c(N)ncnn23)[C@H](O)[C@@H]1O)Oc1ccccc1 (single isomer, unassigned) [Example 25] | 840 nM | 443 nM | 448 nM | 524 nM | – |
| C[C@H](NP(=O)(OC[C@@]1(C#N)O[C@@H](c2ccc3c(N)ncnn23)[C@H](O)[C@@H]1O)Oc1ccccc1)C(=O)OCC1CCCCC1 (single isomer, unassigned) [Example 247] | 1280 nM | 665 nM | 1680 nM | – | – |
| C[C@H](NP(=O)(OC[C@@]1(C#N)O[C@@H](c2ccc3c(N)ncnn23)[C@H](O)[C@@H]1O)Oc1ccccc1)C(=O)OCC1CCCCC1 (single isomer, unassigned) [Example 248] | – | – | – | – | EC50 ([1]; 48 hours): 756 nM; EC50 (HCV replicon 1B; [7]): 503 nM; EC50 (HCV replicon 2A; [8]): 1180 nM |
| C[C@H](NP(=O)(OC[C@@]1(C#N)O[C@@H](c2ccc3c(N)ncnn23)[C@H](O)[C@@H]1O)Oc1ccccc1)C(=O)OCCC(C)(C)C (single isomer, unassigned) [Example 252] | 697 nM | 624 nM | 1650 nM | 284 nM | – |
| C[C@H](NP(=O)(OC[C@@]1(C#N)O[C@@H](c2ccc3c(N)ncnn23)[C@H](O)[C@@H]1O)Oc1ccccc1)C(=O)OCCC(C)(C)C (single isomer, unassigned) [Example 253] | – | – | – | – | EC50 ([2]; 48 hours): 429 nM; EC50 ([1]; 48 hours): 489 nM; EC50 (HCV replicon 1B; [7]): 452 nM; EC50 (HCV replicon 2A; [8]): 887 nM |
| CCOC(=O)[C@H](C)N[P@](=O)(OC[C@@]1(C#N)O[C@@H](c2ccc3c(N)ncnn23)[C@H](O)[C@@H]1O)Oc1ccccc1 [Example 29, Ethyl ((S)-(((2R,3S,4R,5S)-5-(4-aminopyrrolo[2,1-f][1,2,4]triazin-7-yl)-2-cyano-3,4-dihydroxytetrahydrofuran-2-yl)methoxy)(phenoxy)phosphoryl)-L-alaninate] | 1880 nM | – | – | > 5000 nM | – |
| COC(=O)[C@H](C)N[P@](=O)(OC[C@@]1(C#N)O[C@@H](c2ccc3c(N)ncnn23)[C@H](O)[C@@H]1O)Oc1ccccc1 [Example 52, methyl ((S)-(((2R,3S,4R,5S)-5-(4-aminopyrrolo[2,1-f][1,2,4]triazin-7-yl)-2-cyano-3,4-dihydroxytetrahydrofuran-2-yl)methoxy)(phenoxy)phosphoryl)-L-alaninate] | 5480 nM | 3960 nM | 7460 nM | – | – |
| C[C@H](N[P@](=O)(OC[C@@]1(C#N)O[C@@H](c2ccc3c(N)ncnn23)[C@H](O)[C@@H]1O)Oc1ccccc1)C(=O)OCC(C)(C)C [Example 94] | – | – | – | – | EC50 ([2]; 48 hours): 398 nM; EC50 ([1]; 48 hours): 451 nM; EC50 (HCV replicon 1B; replicon cells, 3 days, read-out: HCV Rep 1B EC50): 278 nM; EC50 (HCV replicon 2A; replicon cells, 3 days, read-out: HCV Rep 2A EC50): 493 nM |
| CCCCCCCCCCCCCCCCOCCCOP(=O)(O)OC[C@@]1(C#N)O[C@@H](c2ccc3c(N)ncnn23)[C@H](O)[C@@H]1O [Example 149, ((2R,3S,4R,5S)-5-(4-aminopyrrolo[2,1-f][1,2,4]triazin-7-yl)-2-cyano-3,4-dihydroxytetrahydrofuran-2-yl)methyl (3-(hexadecyloxy)propyl) hydrogen phosphate] | – | – | – | – | EC50 (HCV replicon 1B; Hepatitis C virus, 72 h, replicon cells, 3 days, read-out: HCV Rep 1B EC50): 31100 nM; EC50 (HCV replicon 2A; Hepatitis C virus, 72 h, replicon cells, 3 days, read-out: HCV Rep 2A EC50): > 44400 nM |
| CCCCCCCCCCCCOC(=O)[C@H](C)NP(=O)(OC[C@@]1(C#N)O[C@@H](c2ccc3c(N)ncnn23)[C@H](O)[C@@H]1O)Oc1ccccc1 (stereo partly drawn) [Example 191, dodecyl ((((2R,3S,4R,5S)-5-(4-aminopyrrolo[2,1-f][1,2,4]triazin-7-yl)-2-cyano-3,4-dihydroxytetrahydrofuran-2-yl)methoxy)(phenoxy)phosphoryl)-L-alaninate] | 13300 nM | 19700 nM | 34100 nM | 1070 nM | – |
| CCCCCCOC(=O)[C@H](C)NP(=O)(OC[C@@]1(C#N)O[C@@H](c2ccc3c(N)ncnn23)[C@H](O)[C@@H]1O)Oc1ccccc1 (stereo partly drawn) [Example 192, hexyl ((((2R,3S,4R,5S)-5-(4-aminopyrrolo[2,1-f][1,2,4]triazin-7-yl)-2-cyano-3,4-dihydroxytetrahydrofuran-2-yl)methoxy)(phenoxy)phosphoryl)-L-alaninate] | 2760 nM | – | – | 534 nM | – |
| C[C@H](NP(=O)(OC[C@@]1(C#N)O[C@@H](c2ccc3c(N)ncnn23)[C@H](O)[C@@H]1O)Oc1cccc2ccccc12)C(=O)OC1CCCCC1 (stereo partly drawn) [Example 203, cyclohexyl ((((2R,3S,4R,5S)-5-(4-aminopyrrolo[2,1-f][1,2,4]triazin-7-yl)-2-cyano-3,4-dihydroxytetrahydrofuran-2-yl)methoxy)(naphthalen-1-yloxy)phosphoryl)-L-alaninate] | 1730 nM | 332 nM | 671 nM | 599 nM | – |
| C[C@H](NP(=O)(OC[C@@]1(C#N)O[C@@H](c2ccc3c(N)ncnn23)[C@H](O)[C@@H]1O)Oc1ccccc1)C(=O)OCCC(C)(C)C (stereo partly drawn) [Example 251, 3,3-dimethylbutyl ((((2R,3S,4R,5S)-5-(4-aminopyrrolo[2,1-f][1,2,4]triazin-7-yl)-2-cyano-3,4-dihydroxytetrahydrofuran-2-yl)methoxy)(phenoxy)phosphoryl)-L-alaninate] | 529 nM | 595 nM | 1110 nM | 116 nM | – |
| CCC(C)(C)COC(=O)[C@H](C)NP(=O)(OC[C@@]1(C#N)O[C@@H](c2ccc3c(N)ncnn23)[C@H](O)[C@@H]1O)Oc1ccccc1 (stereo partly drawn) [Example 254, 2,2-dimethylbutyl ((((2R,3S,4R,5S)-5-(4-aminopyrrolo[2,1-f][1,2,4]triazin-7-yl)-2-cyano-3,4-dihydroxytetrahydrofuran-2-yl)methoxy)(phenoxy)phosphoryl)-L-alaninate] | 797 nM | 368 nM | 787 nM | 90 nM | – |
